Results from patent publication US20070213291A1, “Therapeutically useful synthetic oligonucleotides” (priority 1999, published 2007).

How the values were obtained:
[1] = system: L-1210 murine leukemia cells; test: Inhibition of L-1210 cell proliferation; format: cell-based
Description: Cells were seeded in 6 (1 ml/well), 24 (0.5 ml/well) or 96 (0.1 ml/well) well flat-bottom microplates and were maintained at 37° C. in a 5% CO2 atmosphere. Unless stated otherwise, 2.5×10^5 cells/ml were incubated with 0 μg/ml (control) and 100 μg/ml (treated) of 2 to 45 base sequences containing A, C, G and T for 48 h.
Cell proliferation was measured using dimethylthiazol-diphenyl-tetrazolium (MTT) reduction (Mosman et al. J. Immunol. Methods 65:55, 1983). MTT was measured at a wavelength of 570 nm using a multiplate spectrophotometer reader (ELX800, Bio-TEK Instruments Inc., Winooski, Vt.).

[2] = system: MCF-7 human breast cancer cells; test: MCF-7 human breast tumor xenografts in female nude BALB/c mice; format: in vivo; conditions: after 4 weeks of treatment, compared with other groups (group 1 saline)
Description: MCF-7 human breast cancer cells are implanted subcutaneously as xenografts, in female nude BALB/c mice. The mice are divided into 6 groups of 10 mice. […] After 4 weeks of treatment, the mice are sacrificed and tumor mass is determined.

[3] = system: EL-4 murine T lymphoma cells; test: EL-4 murine T lymphoma in C57/BL6 mice; format: in vivo; conditions: after 4 weeks of treatment, compared with group 1 (saline)
Outline: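 C57/BL6 mice bearing implanted EL-4 cells, 10 per group, dosed from day 0 with saline or one of several GT- or AG-containing oligonucleotides. Tumor mass determined at sacrifice after 4 weeks of treatment.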

[4] = Melting temperature (Tm) of sequences; format: physicochemical
[5] = system: caspase 3; test: Caspase 3 activation, colorimetric (p-nitroanilide peptide cleavage); format: cell-based, human; conditions: Jurkat, 72 h, 100 μg/ml
Description: To determine caspase activation, control and treated cells are washed, fixed, permeabilized and incubated with an FITC-conjugated antibody that recognizes the active form of the caspase (Pharmingen, San Diego, Calif.) using the conditions recommended by the manufacturer. Fluorescence associated with active caspase 3 is analyzed by flow cytometry on a FACSCALIBUR using the program CellQUEST (Becton Dickinson). Alternatively, caspase activation is determined colorimetrically using an assay based on the cleavage of a caspase-specific peptide conjugated to the color reporter molecule p-nitroanilide, which can be quantitated spectrophotometrically at a wavelength of 405 nm.
Jurkat T cell leukemia cells were incubated for 72 h with 33 base GT SEQ ID NO:66; 11 base GT SEQ ID NO:81 (bases 1-11 of GT SEQ ID NO:66), 11 base GT SEQ ID NO:82 (bases 12-22 of GT SEQ ID NO:66), 11 base GT SEQ ID NO:83 (bases 23-33 of GT SEQ ID NO:66) and 15 base ACG SEQ ID NO:67. Active caspase 3 (17-22 kDa) was determined using FITC conjugated antibody (Clone: C92-605) as in Example 28.
Caspase 3 activation also was determined colorimetrically as in Example 28.
Jurkat T cell leukemia cells were incubated for 72 h with 6 base GT SEQ ID NO:25. Caspase 3 activation was determined colorimetrically as in Example 28.

[6] = system: MCF-7 human breast cancer cells; test: Cell cycle stage in MCF-7 cells (propidium iodide flow cytometry); format: cell-based; conditions: MCF-7, 5×10^5 cells/ml, 24 h
Description: Cell cycle stage was determined using a […]™ PLUS DNA commercial kit (Becton Dickinson). Briefly, nuclei from cells were obtained by dissolving the cell membrane in a nonionic detergent, eliminating the cell cytoskeleton and nuclear proteins with trypsin, digesting the cellular RNA with RNase and stabilizing the nuclear chromatin with spermine. Propidium iodide was added to the cell nuclei and their fluorescence was analyzed in a flow cytometer equipped with electronic doublet discrimination capability (FACSCalibur, Becton Dickinson, San Jose, Calif.). Accumulation of cells in G0/G1, early S (SE), mid S (SM), late S (SL) or G2/M phases of the cell cycle was analyzed using MODFIT LT software (Verity Software House Inc., Topsham, Mass.).
Exponentially growing Jurkat human leukemia T cells (Table 28) and MCF-7 human breast cancer cells (5×10^5 cells/ml) (Table 29) were incubated for 24 h with 2, 6, 15, 18, 27 and 45 base sequences containing A, C, G and T. The cells were collected and centrifuged and cell cycle stage was determined.

[7] = system: caspase 7; test: Caspase 7 activation by Western blot; format: cell-based, human; conditions: Jurkat, 72 h, 100 μg/ml (FIG. 3B)
Description: (§1) Jurkat T cell leukemia cells were incubated for 72 h with 6 base GT SEQ ID NO:25. The cells were washed 3× with PBS, lysed with 10 mM HEPES, pH 7.5 containing 5 mM MgCl2, 1 mM dithiothreitol, 1.5 nM aprotinin, 10 mM leupeptin and 2.5 μm Na orthovanadate, and the protein content of the lysate was determined (Bradford J. Anal. Biochem. 72:248, 1976).
(§2) Activated caspase 7 and PARP cleavage were detected by Western blot analysis. Lysate was mixed with Laemmli buffer (Laemmli U. Nature […], 1970), shaken, and heated at 100° C. for 4 min. […] The separated proteins were electroblotted onto a PVDF membrane. Equal protein loading was monitored by Ponceau red staining of the membrane.
(§3) The membrane was blocked overnight at 4° C. with a buffer containing 1% Tris-buffered saline (2 mM Tris-HCl, 13.7 mM NaCl, pH 7.6, and 0.1% polyethylenesorbitan monolaurate (TWEEN 20) (TBST) +5% non-fat dry milk. The membrane was washed and was incubated for 1 h at RT with a mouse monoclonal IgG anti-caspase 7 antibody (Pharmingen) (diluted 1:1000 in TBST+1% BSA) or with a mouse monoclonal IgG anti-PARP antibody (diluted 1:1000 in TBST+1% BSA) (Pharmingen). IgG bound to caspase 7 or to PARP was detected with sheep anti-mouse IgG conjugated to horseradish peroxidase (diluted 1:1000 in TBST+5% non-fat dry milk) (Pharmingen). […]

[8] = system: PARP; test: PARP cleavage by Western blot; format: cell-based, human; conditions: Jurkat, 72 h, 100 μg/ml (FIG. 3B)
Description: as §1, §2, §3

## GGGTGG [SEQ ID NO:25]
[1]
  % inhibition of L-1210 murine cancer cell proliferation: 8%
[2]
  tumor mass: less tumor mass than group 1 mice
[3]
  tumor mass: less tumor mass than group 1 mice
[4]
  melting temperature (Tm): 2.5 °C
[5]
  caspase 3 activity greater than in control cells: 323%
[6]
  % cells in phase: G0/G1: 21.9%
  % cells in phase: G2/M: 17.4%
  % cells in phase: SE: 27.6%
  % cells in phase: SL: 10.9%
  % cells in phase: SM: 22.2%
  Arrest (cell cycle): End SM
[7]
  processing of inactive pro-caspase 7 to active caspase 7: induced processing of inactive pro-caspase 7 (30 kDa) to active caspase 7 (19-20 kDa)
[8]
  PARP cleavage: active PARP to its inactive 85 kDa degradation product
